Data published in US4895589A, “Heterocyclic compounds” (Imperial Chemical Industries PLC, priority 1985, dated 1990).

How the values were obtained:
[1] = system: Soya; conditions: SY, 4000 ppm, 2-3 weeks
Experimental: (§5) The compounds were tested for plant growth regulator activity against up to tweleve plant species for various growth effects relevant to plant growth regulation.
(§6) After spray, the plants were grown in a glasshouse with 25° C. day/22° C. night temperatures and supplementary lighting was supplied when necessary (from mercury vapour lamps), to provide a 16 hour photoperiod. The exception to this were the temperate cereals, wheat and barley, which were grown in 16° C. day 13° C. night temperatures
(§7) After 2-3 weeks in the glasshouse, depending on the time of year, the plants were visually assessed for morphological characteristics. Formulations blanks were used as controls to assess the Plants.

[2] = system: Vines; conditions: VN, 4000 ppm, 2-3 weeks
Experimental: as §5, §6, §7

[3] = system: Lettuce; conditions: LT, 4000 ppm, 2-3 weeks
Experimental: as §5, §6, §7

[4] = system: Barley; conditions: BR, 4000 ppm, 2-3 weeks
Experimental: as §5, §6, §7

[5] = system: Spring Barley; experiment: Intermediate Retardant Test, spring barley; assay type: in vivo, Spring Barley (Atem/kym); conditions: Hordeum vulgare, 672 h, ~28 days, Table VIII, read-out: Percentage Reduction in Height of Spring Barley (Compared to formulation blank)
Experimental: (§1) Three species are involved in this test RICE, SPRING-BARLEY and APPLES. The variety and growth stages at spray are outlined in Table VI. Compounds were applied at 1000 ppm and 4000 ppm respectively (1 kg and 4 kg ha^-1 at a field volume of 1000 l/ha^-1) as an overall spray. This gives a foliar and root component in the test, i.e. this test will detect the activity of both root and foliar acting compounds. The rice was grown in 4" `paddy` pots, i.e. the roots and bottom of the stems are immersed in water under conditions corresponding to those in paddy fields. Spring barley and apples were grown in 4" pots. The plants were assessed for height to top-most ligule at approximately 28 days after treatment for spring barley and rice and for height to apex at approximately 28 days after the treatment for apples. In each case the result for the 1000 ppm and 4000 ppm test for each compound is compared to the height of the formulation blank in that test, presented as a percentage reduction in height compared to the formulation blank.
as §1, with “in Table XIV. Compounds were” for “in Table VI. Compounds were”, “that test, and presented as” for “that test, presented as”

[6] = system: Apples; experiment: Intermediate Retardant Test, apples; assay type: in vivo, Apples (Red Delicious); conditions: 672 h, ~28 days, Table IX, read-out: Percentage Reduction in Height of Apples (Compared to formulation blank)
Experimental: as §1
as §1, with “in Table XIV. Compounds were” for “in Table VI. Compounds were”, “that test, and presented as” for “that test, presented as”

[7] = system: Wheat; conditions: WW, 4000 ppm, 2-3 weeks
[8] = system: Tomato; conditions: TO, 4000 ppm, 2-3 weeks
Experimental: as §5, §6, §7

[9] = system: Cynosurus cristatus; conditions: CC, 4000 ppm, 2-3 weeks
Experimental: as §5, §6, §7

[10] = system: Rice; experiment: Intermediate Retardant Test, rice; assay type: in vivo, Rice (Ishikari); conditions: Oryza sativa, 672 h, ~28 days, Table VII, read-out: Percentage Reduction in Height of Rice (Compared to formulation blank)
Experimental: as §1
as §1, with “in Table XIV. Compounds were” for “in Table VI. Compounds were”, “that test, and presented as” for “that test, presented as”

[11] = system: Agrostis tenius; conditions: AT, 4000 ppm, 2-3 weeks
[12] = system: Dacrylis glomerata; conditions: DA, 4000 ppm, 2-3 weeks
Experimental: as §5, §6, §7

[13] = system: plant species of Whole Plant Screen (1) or (2); experiment: Across screen comparison: total retardation relative to paclobutrazol (Whole Plant Screens (1) and (2)); assay type: in vivo; conditions: compounds of Table I, Table X
Description: The following Example is a general indicative comparison of compounds from EP No. 0052424 with compounds from the preferred class in the present invention. The compounds have not been side-by-side tested on this Example because of the large numbers involved but the retardant activity can be compared using a standard which has been on each test.
The compounds which are compared in this Example have been tested on one of two tests. These are the Whole Plant Screen (1) and Whole Plant Screen (2) the methods for which are described in Examples 17 and 18 respectively.
An across screen comparison between compounds is made by expressing the total retardation (ie. sum of retardation scores recorded for each species tested) caused by the compound as a percentage of the total retardation caused by the standard in that test. The standard chemical gives a measure of the performance of the test and environmental factors. By expressing the test compound activity as a percentage of the standard compound activity these factors can be eliminated . The same standard has been used in every test and this is paclobutrazol a proprietory growth regulator.

[14] = system: Apple; experiment: Whole Plant Screen (2), apple; assay type: in vivo, Apple (Red Delicious); conditions: Ap, 4000 ppm, 2-6 weeks, Table V
Experimental: (§2) After 2-6 weeks in the glasshouse, depending on the time of year, the plants were visually assessed for morphological characteristics. Formulation blanks were used as controls to assess the plants.
(§3) Compound numbers 1, 5 and 7 (of the present invention) were tested against compounds A, B, C and D (compound Nos. 12, 2, 24 and 50 of Table 1 EP No. 0052424) on whole plant screen (2). The compounds were tested of plant growth regulator activity against five species and for various growth effects relevant to plant growth regulation. The structures are set out in FIG. 1.
(§4) The plant species used in this screen are presented in Table XII with the leaf stage at which they were sprayed Each chemical was applied at 4000 ppm (4 kg/ha in a 1000 l/ha field volume) using a tracksprayer and a SS8004E (Teejet) nozzle. […]

[15] = system: Barley; experiment: Whole Plant Screen (2), barley; assay type: in vivo, Barley (Atem); conditions: BR, 4000 ppm, 2-6 weeks, Table V
Experimental: as §3, §4

[16] = system: Wheat; experiment: Whole Plant Screen (2), wheat; assay type: in vivo, Wheat (Timmo); conditions: WW, 4000 ppm, 2-6 weeks, Table V
Experimental: Compound numbers 12-13, 16-17 and 19-20 were tested on an alternative whole plant screen (2). The compounds were tested for plant growth regulator activity against five species for various growth effects relevant to plant growth regulation.
The plant species used in this screen are presented in Table IV with the leaf stage at which they were sprayed. Each chemical was applied at 4000 ppm (4 kg/ha in a 1000 l/ha field volume) using a tracksprayer and a SS8004E (Teejet) nozzle. […]
After 2-6 weeks in the glasshouse, depending on the time of year, the plants were visually assessed for morphological characteristics. Formulation blanks were used as controls to assess the plants. […]

[17] = system: Maize; conditions: MZ, 4000 ppm, 2-3 weeks
Experimental: as §5, §6, §7

[18] = system: Rice; experiment: Whole Plant Screen (2), rice; assay type: in vivo, Rice (Ishikari); conditions: RC, 4000 ppm, 2-6 weeks, Table V
Experimental: as §2, §3, §4

Structure (SMILES) | Retardation score (1-3) with greening (G), apical damage (A), tillering/side shooting (T) [1] | Retardation score (1-3) with greening (G), apical damage (A), tillering/side shooting (T) [2] | Retardation score (1-3) with greening (G), apical damage (A), tillering/side shooting (T) [3] | height reduction vs blank at 1000 ppm [5] [%] | height reduction vs blank at 4000 ppm [5] [%] | percent reduction in plant height vs formulation blank at 4000 ppm [6] [%] | Retardation score (1-3) with greening (G), apical damage (A), tillering/side shooting (T) [7] [GT] | Retardation score (1-3) with greening (G), apical damage (A), tillering/side shooting (T) [8] [G] | Percent reduction in rice plant height vs formulation blank at 1000 ppm [10] [%] | Percent reduction in rice plant height vs formulation blank at 4000 ppm [10] [%] | Retardation score (1-3) with greening (G), apical damage (A), tillering/side shooting (T) [12] | Total Retardation expressed as a percentage of the total retardation caused by paclobutrazol [13] | A = Apical damage [14] | T = Tillering or side shooting [14] | I = Interligular or internodal length reduction [15] | percent reduction in plant height vs formulation blank at 1000 ppm [6] [%] | T = Tillering or side shooting [16] | also measured
CCCC(C)C#CC(O)(Cn1cncn1)C(C)(C)C (stereo not drawn) [Compound 9, 2,2-dimethyl-3-hydroxy-3-(3-methyl-hex-1-yne-1-yl)-4-(1,2,4-triazol-1-yl)-butane] | 2GAT | 2GT | 1 (10-30% retardation) | 15.7 | 32.9 | 10.8 | 2 | 2 | 8.2 | 32 | 2 (21-60% retardation) | 73.9 % of paclobutrazol |  |  |  |  |  | Retardation score (1-3) with greening (G), apical damage (A), tillering/side shooting (T) [4]: 1 (10-30% retardation); Retardation score (1-3) with greening (G), apical damage (A), tillering/side shooting (T) [9]: 2 (21-60% retardation); Retardation score (1-3) with greening (G), apical damage (A), tillering/side shooting (T) [11]: 1 (10-30% retardation)
CCCCC#CC(O)(Cn1cncn1)C(C)(C)CF (stereo not drawn) [Compound 17, 2,2-dimethyl-1-fluoro-3-hydroxy-3-(hex-1-yne-1-yl)-4-(1,2,4-triazole-1-yl)-butane] |  |  |  |  | 24 | 54.5 |  |  |  | 22 |  | 150.0 % of paclobutrazol | 3 (61-100%) | 2 (31-60%) | 2 (31-60%) | 9.9 | 1 (10-30%) | G = Greening effect [16]: 1 (10-30%)
CCCCCCC#CC(O)(Cn1cncn1)C(C)(C)C (stereo not drawn) [Compound 4, 2,2-dimethyl-3-hydroxy-3-(oct-1-yne-1-yl)-4-(1,2,4-triazol-1-yl)-butane] | 1G | 1G | 2 (21-60% retardation) | 23.7 | 27.5 | 21 | 1 | 2 |  | 5.8 | 1 (10-30% retardation) |  |  |  |  | 8.2 |  | Retardation score (1-3) with greening (G), apical damage (A), tillering/side shooting (T) [17]: 1G
CC(C)(C)C(O)(C#CCC1CC1)Cn1cncn1 (stereo not drawn) [Compound 16, 2,2-Dimethyl-3-hydroxy-3-(3-cyclopropyl-prop-1-yne-lyl)-4-(1,2,4-triazol-1-yl)-butane] |  |  |  | 11 | 24 | 62.8 |  |  | 14 | 34 |  | 100.0 % of paclobutrazol | 2 (31-60%) | 2 (31-60%) | 3 (61-100%) | 31.8 | 1 (10-30%) | G = Greening effect [14]: 2 (31-60%); G = Greening effect [15]: 1 (10-30%); G = Greening effect [18]: 2 (31-60%); I = Interligular or internodal length reduction [18]: 3 (61-100%); R = Retardation [18]: 3 (61-100%); T = Tillering or side shooting [18]: 1 (10-30%)
